Biological target: T1, novel phytase produced by Bacillus sp. DS11 (KCTC 0231BP), N-terminal amino acid sequence SEQ ID NO: 1 (Bacillus sp., UniProt O66037)
T1 construct: made in house; host or cells: Bacillus sp; DS11 (KCTC 0231BP), native producer strain; enzyme purified from culture supernatant
Assay: biochemical
Format: biochemical
Conditions: for enzyme activity with additive (Non-addition = 100): 30 min
Method: The potency of produced enzyme was measured as follows: By using a substrate, comprising 2 mM phytic acid sodium salts and 2 mM CaCl2 in 0.1 M Tris buffer solution (pH 7.0), the enzyme was reacted at 37° C. for 30 minutes to measure the amount of phosphoric acid generated. One unit of the enzymatic potency is equivalent to the enzymatic amount degrading 1 μ mol of inorganic phosphate per 1 minute. As a result of said measurement, the novel enzyme has the enzymatic potency of 0.3 unit per protein mg. The maximum amount of enzyme in fermentation yielding 0.6 unit/mg was obtained when 30 l of strains, a working volume, was charged to a 50 l fermenter and cultivated at 37° C. for 48 hours under the following conditions: air influx--0.8 vvm; stirring rate--150 rpm.
2 l of novel strain solution, cultivated according to the procedure as described in said Example, was centrifuged for 15 minutes. Then, the supernatant solution was saturated with 50% acetone to precipitate proteins and the crude enzyme solution passed through dialysis membrane was purified on a column containing phenyl sepharose CL-4B, Resource S and superose 12 HR 10/30 (all of which are manufactured by Pharmacia, Sweden) so as to isolate the phytase enzyme only. The analytical results by said column are represented in the attached drawing FIG. 2.

[1] = 0.5 h, pH 7, read-out: enzyme activity with additive (Non-addition = 100)

T1 sequence (O66037 31-383): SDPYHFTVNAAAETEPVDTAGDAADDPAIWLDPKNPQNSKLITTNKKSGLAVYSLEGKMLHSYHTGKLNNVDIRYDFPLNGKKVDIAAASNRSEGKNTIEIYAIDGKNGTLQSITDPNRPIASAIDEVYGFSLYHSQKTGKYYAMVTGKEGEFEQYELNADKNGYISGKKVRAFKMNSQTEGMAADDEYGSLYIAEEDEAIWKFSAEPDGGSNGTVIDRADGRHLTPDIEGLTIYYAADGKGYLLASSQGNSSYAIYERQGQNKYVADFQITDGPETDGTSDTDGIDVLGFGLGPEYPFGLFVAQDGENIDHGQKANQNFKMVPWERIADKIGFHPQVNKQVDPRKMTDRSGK

SMILES	inhibition of enzyme activity (in words)	remaining activity at 1000 µM [1]	remaining activity at 5000 µM [1]	enzyme activity with additive (Non-addition = 100) (additive concentration 1 mM)	enzyme activity with additive (Non-addition = 100) (additive concentration 5 mM)
O=C(O)CN(CCN(CC(=O)O)CC(=O)O)CC(=O)O [EDTA]	inhibited the entire enzyme activity	7.5%	7.6%		
O=S(=O)(F)Cc1ccccc1 [PMSF]				86	88
